Results from US12492188B2, “1H-benzo[D]imidazole derivatives as TLR9 inhibitors for the treatment of fibrosis” (BRISTOL-MYERS SQUIBB COMPANY, priority 2020, dated 2025).
Where two headings read alike, the source gives them in different places.

Experiments:
human TLR7 = target: T1, human TLR7 (Homo sapiens, UniProt Q9NYK1); experiment: TLR7 inhibition reporter assay (HEK-Blue cells, secreted embryonic alkaline phosphatase reporter); type: cell-based; conditions: HEK-Blue cells overexpressing human TLR7, stimulated with gardiquimod 7.5 μM; read-out: TLR 7 IC50
T1 construct: host or cells: HEK-Blue cells (HEK293-derived reporter line)
T1 sequence (Q9NYK1 27-1049): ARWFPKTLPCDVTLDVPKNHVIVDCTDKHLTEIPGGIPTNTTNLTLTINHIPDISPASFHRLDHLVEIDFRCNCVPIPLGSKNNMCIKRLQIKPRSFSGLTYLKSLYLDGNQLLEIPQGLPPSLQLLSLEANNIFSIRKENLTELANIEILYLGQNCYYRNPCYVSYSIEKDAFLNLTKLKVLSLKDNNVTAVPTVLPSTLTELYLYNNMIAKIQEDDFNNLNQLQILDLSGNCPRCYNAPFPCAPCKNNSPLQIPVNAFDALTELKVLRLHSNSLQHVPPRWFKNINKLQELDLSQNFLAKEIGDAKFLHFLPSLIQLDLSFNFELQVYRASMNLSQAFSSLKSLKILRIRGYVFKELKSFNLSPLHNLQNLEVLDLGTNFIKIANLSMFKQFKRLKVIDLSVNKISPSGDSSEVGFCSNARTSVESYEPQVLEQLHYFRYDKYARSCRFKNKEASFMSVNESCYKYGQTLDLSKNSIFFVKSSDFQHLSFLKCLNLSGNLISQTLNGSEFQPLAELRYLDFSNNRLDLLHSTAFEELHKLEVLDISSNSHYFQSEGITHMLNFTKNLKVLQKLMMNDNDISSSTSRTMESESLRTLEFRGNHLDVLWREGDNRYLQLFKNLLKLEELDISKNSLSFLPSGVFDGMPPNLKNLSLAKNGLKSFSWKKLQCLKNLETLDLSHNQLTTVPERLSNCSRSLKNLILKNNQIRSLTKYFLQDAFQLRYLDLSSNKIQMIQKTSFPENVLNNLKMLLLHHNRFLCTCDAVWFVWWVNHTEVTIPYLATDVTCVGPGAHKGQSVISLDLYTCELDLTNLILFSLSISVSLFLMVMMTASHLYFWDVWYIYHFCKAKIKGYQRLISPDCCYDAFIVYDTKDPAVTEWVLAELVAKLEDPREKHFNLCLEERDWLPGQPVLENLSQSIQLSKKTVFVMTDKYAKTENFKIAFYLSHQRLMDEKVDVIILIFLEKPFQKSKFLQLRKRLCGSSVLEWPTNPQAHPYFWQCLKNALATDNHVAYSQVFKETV
Procedure: TLR7/8/9 Inhibition Reporter Assays
HEK-Blue™-cells (Invivogen) overexpressing human TLR7, TLR8 or TLR9 receptors were used for screening inhibitors of these receptors using an inducible SLAP (secreted embryonic alkaline phosphatase) reporter gene under the control of the […] minimal promoter fused to five NF-κB and AP-1-binding sites. Briefly, cells are seeded into Greiner 384 well plates (15000 cells per well for TLR7, 20,000 for TLR8 and 25,000 for TLR9) and then treated with test compounds in DMSO to yield a final dose response concentration range of 0.05 nM-50 μM. After a 30 minute compound pre-treatment at room temperature, the cells are then stimulated with a TLR7 ligand (gardiquimod at a final concentration of 7.5 μM), TLR8 ligand (R848 at a final concentration of 15.9 μM) or TLR9 ligand (ODN2006 at a final concentration of 5 nM) to activate NF-κB and AP-1 which induce the production of SLAP. After a 22 hour incubation at 37° C., […], SLAP levels are determined with the addition of HEK-Blue™ Detection reagent (Invivogen), a cell culture medium that allows for detection of SLAP, according to manufacturer's specifications. The percent inhibition is determined as the […] in the HEK-Blue signal present in wells treated with agonist plus DMSO alone compared to wells treated with a known inhibitor.

human TLR9 = target: T2, human TLR9 (Homo sapiens, UniProt Q9NR96); experiment: TLR9 inhibition reporter assay (HEK-Blue cells, secreted embryonic alkaline phosphatase reporter); type: cell-based
T2 construct: host or cells: HEK-Blue cells (HEK293-derived reporter line)
T2 sequence (Q9NR96 26-1032): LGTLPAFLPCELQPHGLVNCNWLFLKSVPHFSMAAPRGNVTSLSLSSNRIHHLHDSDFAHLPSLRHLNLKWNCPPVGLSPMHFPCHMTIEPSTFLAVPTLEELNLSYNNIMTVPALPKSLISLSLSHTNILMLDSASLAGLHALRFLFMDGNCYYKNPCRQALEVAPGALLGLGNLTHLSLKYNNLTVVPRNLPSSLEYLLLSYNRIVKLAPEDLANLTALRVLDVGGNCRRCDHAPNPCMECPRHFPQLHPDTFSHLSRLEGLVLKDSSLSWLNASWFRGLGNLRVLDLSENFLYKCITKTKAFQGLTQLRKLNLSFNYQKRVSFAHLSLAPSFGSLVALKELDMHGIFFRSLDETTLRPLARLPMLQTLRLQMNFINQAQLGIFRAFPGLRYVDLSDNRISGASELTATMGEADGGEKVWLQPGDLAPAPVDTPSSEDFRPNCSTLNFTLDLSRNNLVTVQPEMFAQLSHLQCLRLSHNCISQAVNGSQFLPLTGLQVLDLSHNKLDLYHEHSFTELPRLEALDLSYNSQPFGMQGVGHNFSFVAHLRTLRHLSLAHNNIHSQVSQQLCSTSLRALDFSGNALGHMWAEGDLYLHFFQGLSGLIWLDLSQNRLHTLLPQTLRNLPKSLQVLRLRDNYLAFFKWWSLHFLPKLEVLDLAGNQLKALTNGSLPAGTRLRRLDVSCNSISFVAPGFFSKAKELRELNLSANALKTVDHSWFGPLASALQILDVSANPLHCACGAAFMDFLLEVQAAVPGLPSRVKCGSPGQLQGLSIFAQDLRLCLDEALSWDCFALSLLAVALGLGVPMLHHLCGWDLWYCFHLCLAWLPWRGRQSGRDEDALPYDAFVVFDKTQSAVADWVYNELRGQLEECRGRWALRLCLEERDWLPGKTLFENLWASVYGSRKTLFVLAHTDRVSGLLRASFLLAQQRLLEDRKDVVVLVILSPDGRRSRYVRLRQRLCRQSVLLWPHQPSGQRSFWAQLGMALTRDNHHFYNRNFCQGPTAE
In short: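 Agonist-driven SEAP output was measured in HEK-Blue reporter cells carrying human TLR7 (gardiquimod 7.5 μM), TLR8 (R848 15.9 μM) or TLR9 (ODN2006 5 nM). Compounds at 0.05 nM–50 μM final were added 30 min before stimulation at room temperature. After 22 h at 37 °C, percent inhibition was taken against agonist/DMSO wells and a reference inhibitor.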

[1] = HEK-Blue cells overexpressing human TLR9, stimulated with ODN2006 5 nM, 22 hour incubation, reporter readout
[2] = HEK-Blue cells overexpressing human TLR9, stimulated with ODN2006 5 nM, read-out: TLR 9 IC50

IC50 (human TLR7) [nM]	IC50 (human TLR9; [1]) [nM]	IC50 (human TLR9) [nM]	IC50 (human TLR9; [2]) [nM]	IC50 (human TLR9; HEK-Blue human TLR9 reporter cells) [nM]	Structure (SMILES)
1900	24	–	–	–	CC(C)N1CCC(N2CCC(c3cc(F)c4nc(-c5ccc(S(C)(=O)=O)cc5)n(C5CC5)c4c3)CC2)CC1 [Example 115, 1-cyclopropyl-4-fluoro-6-(1′-isopropyl-[1,4′-bipiperidin]-4-yl)-2-(4-(methylsulfonyl)phenyl)-1H-benzo[d]imidazole]
11900	–	1800	1770	–	Cn1c(-c2ccc(S(C)(=O)=O)cc2)nc2ccc(C3CCN(C4CCN(C5COC5)CC4)CC3)c(F)c21 [Example 263, 7-fluoro-1-methyl-2-(4-(methylsulfonyl)phenyl)-6-(1′-(oxetan-3-yl)-[1,4′-bipiperidin]-4-yl)-1H-benzo[d]imidazole]
> 50000	–	–	18	18	Cn1c(-c2ccc(S(C)(=O)=O)cc2)nc2ccc(C3CCN(C4CCCN(C5CCOCC5)CC4)CC3)c(F)c21 (stereo not drawn) [Example 317, 7-fluoro-1-methyl-2-(4-(methylsulfonyl)phenyl)-6-(1-(1-(tetrahydro-2H-pyran-4-yl)azepan-4-yl)piperidin-4-yl)-1H-benzo[d]imidazole]
4300	140	–	100	–	Cc1cc(-c2ccc(C3CCN(C)CC3)cc2)cc2c1nc(-c1ccc(S(C)(=O)=O)cc1)n2C [Example 363, 1,4-dimethyl-6-(4-(1-methylpiperidin-4-yl)phenyl)-2-(4-(methylsulfonyl)phenyl)-1H-benzo[d]imidazole]
900	120	–	121	–	Cc1cc(-c2ccc(CN3CCC(N4CCCC4)CC3)cc2)cc2c1nc(-c1ccc(S(C)(=O)=O)cc1)n2C [Example 369, 1,4-dimethyl-2-(4-(methylsulfonyl)phenyl)-6-(4-((4-(pyrrolidin-1-yl)piperidin-1-yl)methyl)phenyl)-1H-benzo[d]imidazole]
11200	1400	–	1360	–	Cc1cc(-c2ccc(CN3CCCC3)cc2)cc2c1nc(-c1ccc(S(C)(=O)=O)cc1)n2C [Example 395, 1,4-dimethyl-2-(4-(methylsulfonyl)phenyl)-6-(4-(pyrrolidin-1-ylmethyl)phenyl)-1H-benzo[d]imidazole]
6700	200	–	203	–	Cc1cc(-c2ccc(CN3C[C@@H]4CN(CC(C)C)C[C@@H]4C3)cc2)cc2c1nc(-c1ccc(S(C)(=O)=O)cc1)n2C [Example 396, 6-(4-((cis-5-isobutylhexahydropyrrolo[3,4-c]pyrrol-2(1H)-yl)methyl)phenyl)-1,4-dimethyl-2-(4-(methylsulfonyl)phenyl)-1H-benzo[d]imidazole]
2600	86	–	86	–	Cc1cc(-c2ccc(CN3C[C@@H]4CN(C(C)C)C[C@@H]4C3)cc2)cc2c1nc(-c1ccc(S(C)(=O)=O)cc1)n2C [Example 397, 6-(4-((cis-5-isopropylhexahydropyrrolo[3,4-c]pyrrol-2(1H)-yl)methyl)phenyl)-1,4-dimethyl-2-(4-(methylsulfonyl)phenyl)-1H-benzo[d]imidazole]
1700	130	–	128	–	Cc1cc(-c2ccc(CN3C[C@H]4CN(C)C[C@H]4C3)cc2)cc2c1nc(-c1ccc(S(C)(=O)=O)cc1)n2C [Example 398, 1,4-dimethyl-6-(4-((cis-5-methylhexahydropyrrolo[3,4-c]pyrrol-2(1H)-yl)methyl)phenyl)-2-(4-(methylsulfonyl)phenyl)-1H-benzo[d]imidazole]
–	61	–	–	–	CN(C)c1ccc(-c2nc3ccc(-c4ccc(CN5CCC(N(C)C)CC5)cc4)cc3n2C)cc1 [Example 425, 1-(4-(2-(4-(dimethylamino)phenyl)-1-methyl-1H-benzo[d]imidazol-6-yl)benzyl)-N,N-dimethylpiperidin-4-amine]
